The numbers were not newly measured in patent US12134602B2 (Yale University, priority 2011, dated 2024), which cites them from elsewhere.

The conditions of the data set: in vivo.

For the compound `C/C=C1\[C@H]2C=C(C)C[C@]1(N)c1ccc(=O)[nH]c1C2` [(−)-Huperzine A, (−)-huperzine A], the tolerability result is reported as “well tolerated”.
